In publication PMC8262883, “Human Gut Faecalibacterium prausnitzii Deploys a Highly Efficient Conserved System To Cross-Feed on β-Mannan-Derived Oligosaccharides” (mBio, 2021):

Target: T1, FpMOBP (Faecalibacterium prausnitzii, UniProt D4KAW3)
T1 construct: gene FPR_17280; mature form without predicted signal peptide, C-terminal His6 tag (pNIC-CH), E. coli BL21 STAR; 48 kDa
T1 sequence (D4KAW3 26-470): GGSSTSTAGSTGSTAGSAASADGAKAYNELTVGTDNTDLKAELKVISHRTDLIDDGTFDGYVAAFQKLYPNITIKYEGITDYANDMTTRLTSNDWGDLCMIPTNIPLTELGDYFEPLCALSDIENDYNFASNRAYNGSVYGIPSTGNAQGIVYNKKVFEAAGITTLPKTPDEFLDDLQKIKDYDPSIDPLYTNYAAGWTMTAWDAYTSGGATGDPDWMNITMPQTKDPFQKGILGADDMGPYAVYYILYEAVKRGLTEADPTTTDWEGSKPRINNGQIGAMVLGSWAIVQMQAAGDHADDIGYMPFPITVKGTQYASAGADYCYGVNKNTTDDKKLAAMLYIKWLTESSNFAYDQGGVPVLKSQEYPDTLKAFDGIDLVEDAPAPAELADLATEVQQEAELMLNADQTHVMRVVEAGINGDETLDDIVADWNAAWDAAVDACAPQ
Assay: isothermal titration calorimetry
Assay type: binding
Details: 25°C, 50 mM sodium phosphate pH 6.5; n = 0.8

Question: Which Kd does the source give for `OC[C@H]1O[C@@H](O[C@H]2[C@H](O)[C@H](O)[C@H](O[C@H]3[C@H](O)[C@H](O)[C@H](O[C@H]4[C@H](O)[C@H](O)[C@H](O[C@H]5[C@H](O)[C@H](O)[C@H](O[C@H]6[C@H](O)[C@H](O)C(O)O[C@@H]6CO)O[C@@H]5CO)O[C@@H]4CO)O[C@@H]3CO)O[C@@H]2CO)[C@@H](O)[C@@H](O)[C@@H]1O` (stereo partly shown) [M6, mannohexaose] here?
Answer: The Kd was 189 ± 1.4 µM.
